Like-named read-outs stand apart in the source and are kept apart here.

The source of these data is US5128354A, “Agent for treating ischemic brain damage” (priority 1987, dated 1992).

The conditions of series [1]: Arch. int. Pharmacodyn., 286, 282-298 (1987); cited from earlier work.
Series [2] is described as follows: Hypnonarcotic activity (loss of righting reflex). Further details: species or system mice (STD-ddY strain, male). The note with it: mouse, in vivo, po. The method, then: (§1) This test was carried out according to the method described in Japan. J. Pharmacol., 13, 259-273 (1963).
(§2) Male mice of STD-ddY strain weighing 22-26 g were used in groups of 5-10 animals. A prescribed amount of test compounds, suspended in a 0.5% aqueous tragacanth solution, was orally administered to mice at a volume of 0.1 ml per 10 g of body weight. […] The HD50 was calculated by Probit method. The HD50 means the dose of a test compound which produced hypnonarcotic effect in 50% of animals.

The subject of series [3] is cerebral hypoxia. The series is described as follows: Prolonging effect on survival time of mice in normobaric hypoxia. Type of series: in vivo, mice (STD-ddY strain, male). The note with it: Mus musculus, po, read-out: Normobaric hypoxia PD30 (dose which prolonged the survival time by 30%). The method, then:
(§3) Protective effect on cerebral hypoxia
(2) Prolonging effect on survival time of mice in normobaric hypoxia
This test was carried out according to the method described in Naunyn-Schmiedeberg's Arch. Pharmacol., 334, 282-289 (1986).
Male mice of STD-ddY strain weighing […] were used in groups of 5 animals. A prescribed amount of test compounds, suspended in a 0.5% aqueous tragacanth solution, was orally administered to mice at a volume of 0.1 ml per 10 g of body weight. Two hours or one hour (for carbamazepine) after the administration of test compounds, each animal was taken in a 2.5-liter plastic chamber, and a mixed gas of 4% oxygen and 96% nitrogen was passed through the chamber at a rate of 4 liters/minute. There was measured the time to the death (respiratory cessation) of the animal. To control group was orally administered only the same volume of a 0.5% aqueous tragacanth solution. The PD30 was calculated from the dose-activity relationship. The PD30 means the dose of a test compound which prolonged the survival time by 30% in comparison with that of control group.

The test system of series [4] is delayed neuronal death in the gerbil hippocampal CA1 subfield. Nature of the series: Protective effect on delayed neuronal death in the gerbil hippocampus following a transient ischemia. Type of series: in vivo, Mongolian gerbils (male). Conditions: p.o.; for CA1 neuronal density: ± S.E., 5 min occlusion, 4 days after. As to the method: Protective effect on delayed neuronal death in the gerbil hippocampus following a transient ischemia
This test was carried out according to the method described in Brain Res., 239, 57-69 (1982).
Male Mongolian gerbils weighing 65-85 g were used in groups of 5 or 6 animals. A prescribed amount of test compounds, suspended in a 0.5% aqueous tragacanth solution, was orally administered to animals at a volume of 0.2 ml per 100 g of body weight. To control group was orally administered only the same volume of 0.5% aqueous tragacanth solution. One hour after the administration of test compounds, the necks of the gerbils were opened by a mid line incision under ether anesthesia, and then the bilateral common carotid arteries were exposed and occluded with Zen clips to block the blood flow. After 5 minutes, the clips were released and the blood flow was restored. Animals for the sham-operated group were operated in the same manner as above except that the occlusion of the carotid arteries. After 4 days, the animals were anesthetized with pentobarbital and fixed by transcardiac perfusion with a fixative solution containing 2.5% glutaraldehyde and 2% formaldehyde in 0.1M phosphate buffer (pH 7.4) at a pressure of 120 cm H2 O, and then the brains were removed. After the isolated brains were kept in the same fixative solution as above overnight, they were cut into coronal sections which contained the hippocampal area 0.5-1.0 mm posterior to the most rostral tip of the hippocampus or 1.4-1.9 mm posterior to bregma. Dissected brains were dehydrated and then embedded in paraffin. From the paraffin block, 4 μm-thin sections were prepared and subjected to hematoxylin-eosin staining.
The number of morphologically intact neurons remaining in the hippocampal CA1 subfield of the above tissue specimen was measured using a computer-image digitizer (Image Research Inc., Canada, MCID model) at a magnification of 200×, and neuronal density per mm^2 area of the right and left hippocampus, namely, the CA1 neuronal density, was calculated.
The value of the CA1 neuronal density in the table was calculated based on the average of the numbers of the remaining neurons in the right and left hippocampus of each animal. Student's t-test was used for the statistical analysis.

In series [5] the test system is cerebral hypoxia. The series is described as follows: Prolonging effect on the persistent time of gasping movements in complete ischemia. It is filed as in vivo, mice (STD-ddY strain, male). The note with it: for ED (15% prolongation): Mus musculus, po, read-out: Complete ischemia PD15 (dose which prolonged the persistent time of gasping movements by 15%). The method, then: as §3
(1) Prolonging effect on the persistent time of gasping movements in complete ischemia
This test was carried out according to the method described in Arch. int. Pharmacodyn., 233, 136-144 (1978).
Male mice of STD-ddY strain weighing 22-26 g were used in groups of 5 animals. A prescribed amount of test compounds, suspended in a 0.5% aqueous tragacanth solution, was orally administered to mice at a volume of 0.1 ml per 10 g of body weight. Two hours or one hour (for carbamazepine) after the administration of test compounds, the necks of the animals were cut with scissors for decapitation. The persistent time of gasping movements in the isolated heads was measured. To control group was orally administered only the same volume of a 0.5% aqueous tragacanth solution. The PD15 was calculated from the dose-activity relationship. The PD15 means the dose of a test compound which prolonged the persistent time of gasping movements by 15% in comparison with that of control group.

A short description of a further series: in vivo. It is filed as in vivo. Conditions: mouse, in vivo, po; mice, p.o.; mortality observed for 7 days; Probit method; read-out: Acute toxicity LD50. The method, then: (§4) Male mice of STD-ddY strain weighing 22-26 g were used in groups of 5-10 animals. A prescribed amount of test compounds, suspended in a 0.5% aqueous tragacanth solution, was orally administered to mice at a volume of 0.2 ml per 10 g of body weight.

In series [6] the test system is mice. Nature of the series: Hypnonarcotic activity (loss of righting reflex). Further details: species or system mice (STD-ddY strain, male). Conditions: mouse, in vivo, po, 200 mg/kg. The method, then:
as §1, §2

The subject of series [7] is mice. The series is described as follows: in vivo. Type of series: in vivo. The note with it: p.o. The method, then: as §4
[8] abbreviates: mice, p.o., 4% oxygen/96% nitrogen, 2 h (1 h for carbamazepine) after administration.
The mark [9] stands for this setting: mice, p.o., 2 h (1 h for carbamazepine) after administration.

On to `NC(=O)N1c2ccccc2C=Cc2ccccc21` [Carbamazepine], for which, in series [1], the “effect against cerebral hypoxia (in words)” value is on record as “effective against cerebral hypoxia”. In addition, the TD50 in series [2] (mice, p.o., righting reflex lost for 60 minutes or more, Probit method, read-out: Hypnonarcotic activity HD50 (dose which produced hypnonarcotic effect in 50% of animals)) stood at 345 mg/kg. Moreover, the ED (30% prolongation) in the series with cerebral hypoxia [3] (setting [8]) was 19.6 mg/kg. Besides, the CA1 neuronal density in series [4] (10 mg/kg) was 482 ± 272 number of cells/mm^2; in series [4] (30 mg/kg), 932 ± 353 number of cells/mm^2; in series [4] (100 mg/kg), 1235 ± 330 number of cells/mm^2. In addition, the “protective effect on delayed neuronal death (in words)” value (from here on “protective effect … (in words)”) in series [4] (100 mg/kg) is listed as “relatively weak protective effect”. In addition, the ED (15% prolongation) in the series on cerebral hypoxia [5] (setting [9]) is 5.5 mg/kg.

For `CCC1(c2ccccc2)C(=O)NC(=O)NC1=O` [Phenobarbital], in “in vivo”, the LD50 (as a rule, the dose at which mortality reaches 50%) at 168 h was 201 mg/kg. The ED (30% prolongation) in the series with cerebral hypoxia [3] stood at 26.8 mg/kg. Besides, in the series on cerebral hypoxia [5], the ED (15% prolongation) is 15 mg/kg.

For `O=C1NC(=O)C(c2ccccc2)(c2ccccc2)N1` [Phenytoin], the “effect against cerebral hypoxia (in words)” value in series [1] is listed as “effective against cerebral hypoxia”. In addition, the “Clonic convulsion and death” value in the series on mice [6] is “convulsion in all mice and of death in some mice”. The molecule also displayed a TD50 in series [2] greater than 200 mg/kg. The ED (30% prolongation) in the series with cerebral hypoxia [3] (setting [8]) is 22.7 mg/kg. The figures for the CA1 neuronal density in series [4] (30 mg/kg) and in series [4] (100 mg/kg) were 228 ± 87 number of cells/mm^2 and 1464 ± 503 number of cells/mm^2, respectively. The “protective effect … (in words)” value in series [4] (100 mg/kg) is “relatively weak protective effect”. For the same molecule, in the series with cerebral hypoxia [5] (setting [9]), the ED (15% prolongation) was 5.5 mg/kg.

`NS(=O)(=O)Cc1noc2ccccc12` [The active compound of the invention, 3-Sulfamoylmethyl-1,2-benzisoxazole]: the “toxicity (in words)” value in the series with mice [7] is recorded as “weak”. Besides, the LD50 at 168 h in the series “in vivo” was 1890 mg/kg. The same molecule gave a TD50 in series [2] of 934 mg/kg. Moreover, the ED (30% prolongation) in the series on cerebral hypoxia [3] is 29.4 mg/kg. Besides, the CA1 neuronal density is 519 ± 28 number of cells/mm^2 in series [4] (10 mg/kg), 2713 ± 228 number of cells/mm^2 in series [4] (30 mg/kg) and 3326 ± 49 number of cells/mm^2 in series [4] (100 mg/kg). Further, the “protective effect … (in words)” value is “extremely strong protective effect” in series [4] (30 mg/kg) and “almost completely prevented the delayed neuronal death” in series [4] (100 mg/kg). Also, the ED (15% prolongation) in the series on cerebral hypoxia [5] worked out at 6 mg/kg. Moreover, in the series on cerebral hypoxia [5] (mice, p.o., complete ischemia and normobaric hypoxia (also A2)), the “protective effects on cerebral hypoxia compared with reference drugs (Table 1)” value was “comparable to those of phenobarbital, phenytoin and carbamazepine”.
